Assay results published in PubChem BioAssay (NCI).
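Each compound was tested at five concentrations against cells in 96-well plates for 48 hours. GI50 = concentration required for 50% inhibition of growth. TGI: total growth inhibition.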

Assays:
Test in all cases: growth of human tumour cells (NCI), 48 h; in the data active means GI50 below about 0.43 µM; inactive means the rest
786-0 renal = tested on: 786-0 renal
A498 renal = tested on: A498 renal
A549 NSCLC = tested on: A549 NSCLC
ACHN renal = tested on: ACHN renal
BT-549 breast = tested on: BT-549 breast
CAKI-1 renal = tested on: CAKI-1 renal
CCRF-CEM leukemia = tested on: CCRF-CEM leukemia
COLO 205 colon = tested on: COLO 205 colon
DU-145 prostate = tested on: DU-145 prostate
HCC-2998 colon = tested on: HCC-2998 colon
HCT-116 colon = tested on: HCT-116 colon
HCT-15 colon = tested on: HCT-15 colon
HL-60(TB) leukemia = tested on: HL-60(TB) leukemia
HOP-62 NSCLC = tested on: HOP-62 NSCLC
HOP-92 NSCLC = tested on: HOP-92 NSCLC
HS 578T breast = tested on: HS 578T breast
HT29 colon = tested on: HT29 colon
IGROV1 ovarian = tested on: IGROV1 ovarian
K-562 leukemia = tested on: K-562 leukemia
KM12 colon = tested on: KM12 colon
LOX IMVI melanoma = tested on: LOX IMVI melanoma
M14 melanoma = tested on: M14 melanoma
MALME-3M melanoma = tested on: MALME-3M melanoma
MCF7 breast = tested on: MCF7 breast
MDA-MB-231 breast = tested on: MDA-MB-231 breast
MDA-MB-435 = tested on: MDA-MB-435
MOLT-4 leukemia = tested on: MOLT-4 leukemia
NCI-H226 lung = tested on: NCI-H226 lung
NCI-H23 lung = tested on: NCI-H23 lung
NCI-H460 lung = tested on: NCI-H460 lung
NCI-H522 lung = tested on: NCI-H522 lung
NCI/ADR-RES ovarian = tested on: NCI/ADR-RES ovarian
OVCAR-3 ovarian = tested on: OVCAR-3 ovarian
OVCAR-4 ovarian = tested on: OVCAR-4 ovarian
OVCAR-5 ovarian = tested on: OVCAR-5 ovarian
OVCAR-8 ovarian = tested on: OVCAR-8 ovarian
PC-3 prostate = tested on: PC-3 prostate
RPMI-8226 leukemia = tested on: RPMI-8226 leukemia
RXF 393 renal = tested on: RXF 393 renal
SF-268 CNS = tested on: SF-268 CNS
SF-295 CNS = tested on: SF-295 CNS
SF-539 CNS = tested on: SF-539 CNS
SK-MEL-2 melanoma = tested on: SK-MEL-2 melanoma
SK-MEL-28 melanoma = tested on: SK-MEL-28 melanoma
SK-MEL-5 melanoma = tested on: SK-MEL-5 melanoma
SK-OV-3 ovarian = tested on: SK-OV-3 ovarian
SN12C renal = tested on: SN12C renal
SNB-19 CNS = tested on: SNB-19 CNS
SNB-75 CNS = tested on: SNB-75 CNS
SR leukemia = tested on: SR leukemia
SW-620 colon = tested on: SW-620 colon
T-47D breast = tested on: T-47D breast
TK-10 renal = tested on: TK-10 renal
U251 CNS = tested on: U251 CNS
UACC-257 melanoma = tested on: UACC-257 melanoma
UACC-62 melanoma = tested on: UACC-62 melanoma
UO-31 renal = tested on: UO-31 renal

C[C@H](O)CNc1cc(-c2[nH]c3cccnc3c2-c2ccc(F)cc2)ccn1
> 22.9 µM: TGI (HOP-92 NSCLC)
> 21.8 µM: TGI (IGROV1 ovarian)
inactive: GI50 (786-0 renal) 16.2 µM | GI50 (A498 renal) 4.19 µM | GI50 (A549 NSCLC) 13.4 µM | GI50 (ACHN renal) 4.66 µM | GI50 (BT-549 breast) 17.8 µM | GI50 (CAKI-1 renal) 9.06 µM | GI50 (CCRF-CEM leukemia) 20.1 µM | GI50 (COLO 205 colon) 13.5 µM | GI50 (DU-145 prostate) 18.7 µM | GI50 (HCC-2998 colon) > 23.3 µM | GI50 (HCT-116 colon) 13.2 µM | GI50 (HCT-15 colon) 10.3 µM | GI50 (HL-60(TB) leukemia) > 25 µM | GI50 (HOP-62 NSCLC) 20.1 µM | GI50 (HOP-92 NSCLC) 1590 nM | GI50 (HS 578T breast) 15.8 µM | GI50 (HT29 colon) 10.1 µM | GI50 (IGROV1 ovarian) 6.35 µM | GI50 (K-562 leukemia) > 23 µM | GI50 (KM12 colon) 22.1 µM | GI50 (LOX IMVI melanoma) 12.5 µM | GI50 (M14 melanoma) > 25 µM | GI50 (MALME-3M melanoma) > 14.4 µM | GI50 (MCF7 breast) 6.37 µM | GI50 (MDA-MB-231 breast) 24.1 µM | GI50 (MDA-MB-435) > 23 µM | GI50 (MOLT-4 leukemia) > 25 µM | GI50 (NCI-H226 lung) 12.9 µM | GI50 (NCI-H23 lung) > 25 µM | GI50 (NCI-H460 lung) 8.43 µM | GI50 (NCI-H522 lung) > 25 µM | GI50 (NCI/ADR-RES ovarian) > 25 µM | GI50 (OVCAR-3 ovarian) 22.2 µM | GI50 (OVCAR-4 ovarian) > 25 µM | GI50 (OVCAR-5 ovarian) > 25 µM | GI50 (OVCAR-8 ovarian) > 20.2 µM | GI50 (PC-3 prostate) > 23 µM | GI50 (RPMI-8226 leukemia) > 17.1 µM | GI50 (RXF 393 renal) 14.6 µM | GI50 (SF-268 CNS) 17.3 µM | GI50 (SF-295 CNS) > 12.4 µM | GI50 (SF-539 CNS) > 25 µM | GI50 (SK-MEL-2 melanoma) > 25 µM | GI50 (SK-MEL-28 melanoma) > 25 µM | GI50 (SK-MEL-5 melanoma) 10.3 µM | GI50 (SK-OV-3 ovarian) 13.1 µM | GI50 (SN12C renal) 11.9 µM | GI50 (SNB-19 CNS) 18.5 µM | GI50 (SNB-75 CNS) 11.8 µM | GI50 (SR leukemia) 13.3 µM | GI50 (SW-620 colon) > 25 µM | GI50 (T-47D breast) 8.88 µM | GI50 (TK-10 renal) 10.3 µM | GI50 (U251 CNS) > 18.5 µM | GI50 (UACC-257 melanoma) > 25 µM | GI50 (UACC-62 melanoma) 12.3 µM | GI50 (UO-31 renal) 4.08 µM
> 25 µM: TGI (786-0 renal) | TGI (A498 renal) | TGI (A549 NSCLC) | TGI (ACHN renal) | TGI (BT-549 breast) | TGI (CAKI-1 renal) | TGI (CCRF-CEM leukemia) | TGI (COLO 205 colon) | TGI (DU-145 prostate) | TGI (HCC-2998 colon) | TGI (HCT-116 colon) | TGI (HCT-15 colon) | TGI (HL-60(TB) leukemia) | TGI (HOP-62 NSCLC) | TGI (HS 578T breast) | TGI (HT29 colon) | TGI (K-562 leukemia) | TGI (KM12 colon) | TGI (LOX IMVI melanoma) | TGI (M14 melanoma) | TGI (MALME-3M melanoma) | TGI (MCF7 breast) | TGI (MDA-MB-231 breast) | TGI (MDA-MB-435) | TGI (MOLT-4 leukemia) | TGI (NCI-H226 lung) | TGI (NCI-H23 lung) | TGI (NCI-H460 lung) | TGI (NCI-H522 lung) | TGI (NCI/ADR-RES ovarian) | TGI (OVCAR-3 ovarian) | TGI (OVCAR-4 ovarian) | TGI (OVCAR-5 ovarian) | TGI (OVCAR-8 ovarian) | TGI (PC-3 prostate) | TGI (RPMI-8226 leukemia) | TGI (RXF 393 renal) | TGI (SF-268 CNS) | TGI (SF-295 CNS) | TGI (SF-539 CNS) | TGI (SK-MEL-2 melanoma) | TGI (SK-MEL-28 melanoma) | TGI (SK-MEL-5 melanoma) | TGI (SK-OV-3 ovarian) | TGI (SN12C renal) | TGI (SNB-19 CNS) | TGI (SNB-75 CNS) | TGI (SR leukemia) | TGI (SW-620 colon) | TGI (T-47D breast) | TGI (TK-10 renal) | TGI (U251 CNS) | TGI (UACC-257 melanoma) | TGI (UACC-62 melanoma) | TGI (UO-31 renal)
